Assay results taken from ChEMBL document CHEMBL1201861, “Genomics of Drug Sensitity in Cancer screening data, Wellcome Trust Sanger Institute”.

Experiments:
Assay in all cases: cells
Format in all cases: functional, cell-based, Homo sapiens
RPMI-8226 = conditions: Homo sapiens, RPMI-8226
Description: SANGER: Inhibition of human RPMI-8226 cell growth in a cell viability assay.

KINGS-1 = conditions: Homo sapiens, KINGS-1;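 note: cell viability assay measuring suppression of KINGS-1 cell growth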
Description: SANGER: Inhibition of human KINGS-1 cell growth in a cell viability assay.

NOMO-1 = conditions: Homo sapiens, NOMO-1;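 note: growth inhibition of human NOMO-1 cells measured by a cell viability assay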
Description: SANGER: Inhibition of human NOMO-1 cell growth in a cell viability assay.

ES4 = conditions: Homo sapiens, ES4;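 note: growth inhibition of human ES4 cells, read out by a cell viability assay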
Description: SANGER: Inhibition of human ES4 cell growth in a cell viability assay.

ACN = conditions: Homo sapiens, ACN;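 note: growth inhibition of the human ACN cell line, read out via cell viability testing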
Description: SANGER: Inhibition of human ACN cell growth in a cell viability assay.

RKO = conditions: Homo sapiens, RKO;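 note: growth inhibition of human RKO cells, read out with a cell viability assay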
Description: SANGER: Inhibition of human RKO cell growth in a cell viability assay.

MZ2-MEL = conditions: Homo sapiens, MZ2-MEL;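 note: growth inhibition of MZ2-MEL cells read out with a cell viability assay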
Description: SANGER: Inhibition of human MZ2-MEL cell growth in a cell viability assay.

GI-ME-N = conditions: Homo sapiens, GI-ME-N;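 note: growth inhibition of human GI-ME-N cells, read out with a cell viability assay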
Description: SANGER: Inhibition of human GI-ME-N cell growth in a cell viability assay.

NCI-H446 = conditions: Homo sapiens, NCI-H446;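 note: growth inhibition of NCI-H446 cells determined by a cell viability assay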
Description: SANGER: Inhibition of human NCI-H446 cell growth in a cell viability assay.

TE-10 = conditions: Homo sapiens, TE-10;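 note: growth inhibition of TE-10 cells, measured by a cell viability assay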
Description: SANGER: Inhibition of human TE-10 cell growth in a cell viability assay.

LC-2-ad = conditions: Homo sapiens, LC-2-ad;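 note: growth inhibition of human LC-2-ad cells, read out with a cell viability assay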
Description: SANGER: Inhibition of human LC-2-ad cell growth in a cell viability assay.

ES6 = conditions: Homo sapiens, ES6;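 note: growth inhibition of human ES6 cells, read out with a cell viability assay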
Description: SANGER: Inhibition of human ES6 cell growth in a cell viability assay.

CW-2 = conditions: Homo sapiens, CW-2;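 note: growth inhibition of CW-2 cells, read out by a cell viability assay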
Description: SANGER: Inhibition of human CW-2 cell growth in a cell viability assay.

A101D = conditions: Homo sapiens, A101D;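 note: growth inhibition of the cell line, measured with a viability assay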
Description: SANGER: Inhibition of human A101D cell growth in a cell viability assay.

KARPAS-45 = conditions: Homo sapiens, KARPAS-45;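 note: inhibition of cell line growth, read out through a viability assay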
Description: SANGER: Inhibition of human KARPAS-45 cell growth in a cell viability assay.

PSN1 = conditions: Homo sapiens, PSN1;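 note: suppression of growth of human PSN1 cells, read out by a cell viability assay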
Description: SANGER: Inhibition of human PSN1 cell growth in a cell viability assay.

KALS-1 = conditions: Homo sapiens, KALS-1;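 note: growth inhibition of KALS-1 cells, determined with a cell viability assay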
Description: SANGER: Inhibition of human KALS-1 cell growth in a cell viability assay.

NCI-H1648 = conditions: Homo sapiens, NCI-H1648;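 note: cell viability assay measuring inhibition of NCI-H1648 cell growth, from the Sanger screening data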
Description: SANGER: Inhibition of human NCI-H1648 cell growth in a cell viability assay.

SBC-1 = conditions: Homo sapiens, SBC-1;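 note: cell viability assay measuring growth inhibition of the SBC-1 cell line, IC50 being the concentration that halves growth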
Description: SANGER: Inhibition of human SBC-1 cell growth in a cell viability assay.

KGN = conditions: Homo sapiens, KGN;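 note: growth inhibition of KGN cells, read out with a cell viability assay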
Description: SANGER: Inhibition of human KGN cell growth in a cell viability assay.

SCH = conditions: Homo sapiens, SCH;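 note: growth inhibition of human SCH cells, read out in a cell viability assay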
Description: SANGER: Inhibition of human SCH cell growth in a cell viability assay.

JVM-2 = conditions: Homo sapiens, JVM-2;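 note: growth inhibition of JVM-2 cells determined by a cell viability assay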
Description: SANGER: Inhibition of human JVM-2 cell growth in a cell viability assay.

ES7 = conditions: Homo sapiens, ES7;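 note: growth inhibition of cultured human ES7 cells, read out as cell viability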
Description: SANGER: Inhibition of human ES7 cell growth in a cell viability assay.

LB373-MEL-D = conditions: Homo sapiens, LB373-MEL-D;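 note: growth inhibition of the cell line, read out in a cell viability assay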
Description: SANGER: Inhibition of human LB373-MEL-D cell growth in a cell viability assay.

K562 = conditions: Homo sapiens, K562
Description: SANGER: Inhibition of human K-562 cell growth in a cell viability assay.

JVM-3 = conditions: Homo sapiens, JVM-3;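 note: growth inhibition of human JVM-3 cells, read out with a cell viability assay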
Description: SANGER: Inhibition of human JVM-3 cell growth in a cell viability assay.

Lu-65 = conditions: Homo sapiens, Lu-65;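 note: growth inhibition of Lu-65 cancer cells, read out by a cell viability assay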
Description: SANGER: Inhibition of human LU-65 cell growth in a cell viability assay.

TK-10 = conditions: Homo sapiens, TK-10;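 note: growth inhibition of TK-10 cells, read out in a cell viability assay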
Description: SANGER: Inhibition of human TK10 cell growth in a cell viability assay.

NB10 = conditions: Homo sapiens, NB10;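 note: growth inhibition of NB10 cells, read out by a cell viability assay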
Description: SANGER: Inhibition of human NB10 cell growth in a cell viability assay.

SW684 = conditions: Homo sapiens, SW684;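 note: growth inhibition of human SW684 cells, measured by a cell viability assay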
Description: SANGER: Inhibition of human SW684 cell growth in a cell viability assay.

MOLT-16 = conditions: Homo sapiens, MOLT-16;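 note: growth inhibition of human MOLT-16 cells, read out with a cell viability assay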
Description: SANGER: Inhibition of human MOLT-16 cell growth in a cell viability assay.

LB831-BLC = conditions: Homo sapiens, LB831-BLC;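 note: growth inhibition of LB831-BLC cells, read out with a cell viability assay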
Description: SANGER: Inhibition of human LB831-BLC cell growth in a cell viability assay.

KARPAS-299 = conditions: Homo sapiens, KARPAS-299
Description: SANGER: Inhibition of human KARPAS-299 cell growth in a cell viability assay.

NEC8 = conditions: Homo sapiens, NEC8;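 note: growth inhibition of human NEC8 cells, read out by a cell viability assay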
Description: SANGER: Inhibition of human NEC8 cell growth in a cell viability assay.

NMC-G1 = conditions: Homo sapiens, NMC-G1;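 note: growth inhibition of the NMC-G1 cell line, measured with a cell viability read-out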
Description: SANGER: Inhibition of human NMC-G1 cell growth in a cell viability assay.

NCI-H1581 = conditions: Homo sapiens, NCI-H1581;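 note: cell growth inhibition read out by a viability assay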
Description: SANGER: Inhibition of human NCI-H1581 cell growth in a cell viability assay.

NCI-H1650 = conditions: Homo sapiens, NCI-H1650;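 note: growth inhibition of human NCI-H1650 cells measured by a cell viability assay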
Description: SANGER: Inhibition of human NCI-H1650 cell growth in a cell viability assay.

P30-OHK = conditions: Homo sapiens, P30-OHK;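 note: growth inhibition of the P30-OHK cell line, read out with a cell viability assay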
Description: SANGER: Inhibition of human P30-OHK cell growth in a cell viability assay.

BT-474 = conditions: Homo sapiens, BT-474
Description: SANGER: Inhibition of human BT-474 cell growth in a cell viability assay.

SW872 = conditions: Homo sapiens, SW872;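 note: growth inhibition of SW872 cells, read out by a viability assay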
Description: SANGER: Inhibition of human SW872 cell growth in a cell viability assay.

LS-411N = conditions: Homo sapiens, LS-411N
LS-513 = conditions: Homo sapiens, LS-513
Description: SANGER: Inhibition of human LS-513 cell growth in a cell viability assay.

ES5 = conditions: Homo sapiens, ES5;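 note: growth inhibition of human ES5 cells, read out by a cell viability assay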
Description: SANGER: Inhibition of human ES5 cell growth in a cell viability assay.

KE-37 = conditions: Homo sapiens, KE-37;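 note: growth inhibition of KE-37 cells, read out with a cell viability assay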
Description: SANGER: Inhibition of human KE-37 cell growth in a cell viability assay.

EC-GI-10 = conditions: Homo sapiens, EC-GI-10
Description: SANGER: Inhibition of human EC-GI-10 cell growth in a cell viability assay.

KG-1 = conditions: Homo sapiens, KG-1;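 note: growth inhibition of KG-1 cells, read out by a cell viability assay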
Description: SANGER: Inhibition of human KG-1 cell growth in a cell viability assay.

KY821 = conditions: Homo sapiens, KY821;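 note: growth inhibition of human KY821 cells, read out by a cell viability assay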
Description: SANGER: Inhibition of human KY821 cell growth in a cell viability assay.

NOS-1 = conditions: Homo sapiens, NOS-1;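 note: growth inhibition of the human NOS-1 cell line, read out with a cell viability assay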
Description: SANGER: Inhibition of human NOS-1 cell growth in a cell viability assay.

TE-11 = conditions: Homo sapiens, TE-11;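 note: growth inhibition of human TE-11 cells, read out by a cell viability assay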
Description: SANGER: Inhibition of human TE-11 cell growth in a cell viability assay.

COc1cc(N2CCN(C)CC2)ccc1Nc1ncc2c(n1)N(C)c1ccccc1C(=O)N2C
IC50 (RPMI-8226): > 8 µM
IC50 (KINGS-1): > 8 µM
IC50 (NOMO-1): > 8 µM
IC50 (ES4): > 8 µM
IC50 (ACN): > 8 µM
IC50 (RKO): 4.68 µM
IC50 (MZ2-MEL): > 8 µM
IC50 (GI-ME-N): 889 nM
IC50 (NCI-H446): > 8 µM
IC50 (TE-10): 6.89 µM
IC50 (LC-2-ad): > 8000 nM
IC50 (ES6): > 8000 nM
IC50 (CW-2): > 8 µM
IC50 (A101D): 7.59 µM
IC50 (KARPAS-45): 3.97 µM
IC50 (PSN1): > 8000 nM
IC50 (KALS-1): 7.78 µM
IC50 (NCI-H1648): > 8000 nM
IC50 (SBC-1): > 8 µM
IC50 (KGN): 2790 nM
IC50 (SCH): > 8 µM
IC50 (JVM-2): > 8 µM
IC50 (ES7): > 8 µM
IC50 (LB373-MEL-D): > 8 µM
IC50 (K562): > 8000 nM
IC50 (JVM-3): > 8 µM
IC50 (Lu-65): > 8 µM
IC50 (TK-10): > 8000 nM
IC50 (NB10): > 8 µM
IC50 (SW684): > 8 µM
IC50 (MOLT-16): 2710 nM
IC50 (LB831-BLC): > 8000 nM
IC50 (KARPAS-299): > 8 µM
IC50 (NEC8): > 8 µM
IC50 (NMC-G1): > 8000 nM
IC50 (NCI-H1581): > 8 µM
IC50 (NCI-H1650): > 8 µM
IC50 (P30-OHK): > 8 µM
IC50 (BT-474): > 8 µM
IC50 (SW872): > 8000 nM
IC50 (LS-411N): 7.05 µM
IC50 (LS-513): 5.86 µM
IC50 (ES5): > 8 µM
IC50 (KE-37): > 8 µM
IC50 (EC-GI-10): > 8 µM
IC50 (KG-1): > 8 µM
IC50 (KY821): > 8 µM
IC50 (NOS-1): 3570 nM

COc1cc(-c2nn([C@H]3CC[C@H](N4CCN(C(C)=O)CC4)CC3)c3ncnc(N)c23)ccc1NC(=O)c1cc2ccccc2n1C
IC50 (RPMI-8226): > 5.12 µM
IC50 (KINGS-1): > 5.12 µM
IC50 (NOMO-1): > 5.12 µM
IC50 (ES4): > 5.12 µM
IC50 (ACN): > 5.12 µM
IC50 (RKO): 3.46 µM
IC50 (MZ2-MEL): > 5.12 µM
IC50 (GI-ME-N): 2290 nM
IC50 (NCI-H446): > 5.12 µM
IC50 (TE-10): 2.36 µM
IC50 (LC-2-ad): 483 nM
IC50 (ES6): 1960 nM
IC50 (CW-2): > 5.12 µM
IC50 (A101D): 3.71 µM
IC50 (KARPAS-45): > 5.12 µM
IC50 (PSN1): 1140 nM
IC50 (KALS-1): 2.53 µM
IC50 (NCI-H1648): 387 nM
IC50 (TE-11): 1580 nM
IC50 (SBC-1): > 5.12 µM
IC50 (KGN): 887 nM
IC50 (SCH): > 5.12 µM
IC50 (JVM-2): > 5.12 µM
IC50 (ES7): > 5.12 µM
IC50 (LB373-MEL-D): > 5.12 µM
IC50 (K562): 392 nM
IC50 (JVM-3): > 5.12 µM
IC50 (Lu-65): > 5.12 µM
IC50 (TK-10): 596 nM
IC50 (NB10): > 5.12 µM
IC50 (SW684): > 5.12 µM
IC50 (MOLT-16): > 5120 nM
IC50 (LB831-BLC): 593 nM
IC50 (KARPAS-299): > 5.12 µM
IC50 (NEC8): > 5.12 µM
IC50 (NMC-G1): 573 nM
IC50 (NCI-H1581): > 5.12 µM
IC50 (NCI-H1650): > 5.12 µM
IC50 (P30-OHK): > 5.12 µM
IC50 (BT-474): > 5.12 µM
IC50 (SW872): 452 nM
IC50 (LS-411N): > 5.12 µM
IC50 (LS-513): > 5.12 µM
IC50 (ES5): > 5.12 µM
IC50 (KE-37): > 5.12 µM
IC50 (EC-GI-10): > 5.12 µM
IC50 (KG-1): > 5.12 µM
IC50 (KY821): 3.65 µM
IC50 (NOS-1): 196 nM
